Entries after “also recorded” stand apart in the source; their conditions may differ.
Tests used:
[1] = system: adult schizophrenia patients; assay: 6-week adjunctive pimavanserin study: safety and adverse events; format: in vivo, human
Experimental: The effect of pimavanserin as an adjunctive treatment in adult schizophrenia patients with a persistent inadequate response (i.e., partial responders) to their existing antipsychotic therapy was tested. 396 patients with moderate-to-severe psychotic symptoms were randomized to receive either pimavanserin or placebo added to existing antipsychotic treatment.
Patients were administered a daily dose of pimavanserin or a placebo for six weeks. The dose started at 20 mg and could be adjusted to 34 mg or 10 mg between weeks 1 and 3. The majority of patients (56%) completed the study at the highest dose level.
The safety of the pimavanserin arm was similar to placebo, with no new signals observed. […] The overall number of SAEs and AEs leading to discontinuation was low. The most commonly reported AEs leading to discontinuation of treatment were from the psychiatric disorders system and seen in the active arm.

[2] = system: subjects with schizophrenia who have predominant negative symptoms; assay: Phase 2, 26-week placebo-controlled study of adjunctive pimavanserin for negative symptoms of schizophrenia: efficacy; format: in vivo, human; settings: for NSA-16 total score vs placebo, effect size: Week 26; for NSA-16 total score, change from Baseline to Week 26: placebo −8.5
Experimental: This study is conducted as a Phase 2, 26-week, randomized, double-blind, placebo-controlled, multicenter, multinational outpatient study in subjects with schizophrenia who have predominant negative symptoms while on adequate treatment with an antipsychotic. Schizophrenia is defined by the Diagnostic and Statistical Manual of Mental Disorders, Fifth Edition (DSM-5), confirmed by a customized module of the Structured Clinical Interview for DSM-5, Clinical Trials Version (SCID-5-CT). This study enrolls approximately 403 subjects with predominant negative symptoms of schizophrenia. In the study, patients were randomized to receive either pimavanserin or placebo added to their current background antipsychotic treatment for 26 weeks in duration. At baseline all patients were started on a daily dose of 20 mg of pimavanserin or placebo with dose adjustments allowed up to 34 mg or down to 10 mg during the first eight weeks of treatment. Following week eight no further dose modifications were allowed for the remaining 18 weeks in the study.
The daily dose of the main antipsychotic must remain stable and may not be changed from Screening through the duration of the study. […] At the Weeks 2, 4, and 8 visits, the daily dose of pimavanserin may remain at 20 mg or it may be either increased to 34 mg (for symptom improvement) or decreased to 10 mg daily (if the 20 mg dose is not well tolerated). After the Week 8 visit, no study drug dose changes may be made. Clinic visits occurring after Baseline will be conducted at Weeks 2, 4, 8, 14, 20, and 26 (End-of-Study [EOS]/Early Termination [ET] visit).
The test products are pimavanserin 10 mg and 17 mg tablets or matching placebo. Daily doses of pimavanserin to be studied are 10 mg (provided as 1×10 mg pimavanserin tablet and 1× matching placebo); 20 mg (2×10 mg pimavanserin tablets); or 34 mg (2×17 mg pimavanserin tablets); or matching placebo (2× placebo tablets); delivered by mouth. Seventeen (17) mg of the active moiety is dosed as 20 mg of the salt pimavanserin tartrate; 10 mg of the active moiety is dosed as 11.8 mg of the salt pimavanserin tartrate. The duration of participation for individual subjects will be up to approximately 34 weeks.
Primary Efficacy Endpoint is the change from Baseline to Week 26 in the Negative Symptom Assessment-16 (NSA-16) total score.
Secondary Endpoints Key Secondary Endpoint is the change from Baseline to Week 26 in the Personal and Social Performance Scale (PSP) score.

[3] = system: scPCP+ARS(2h) treated male C57BL/6J mice; assay: 10-min social interaction test in scPCP-treated mice given 2 h acute restraint stress (treatment-resistant model); format: in vivo; settings: risperidone 0.2, olanzapine 1, aripiprazole 1 or pimavanserin 3 mg/kg ip alone, 45 min prior to test
Experimental: Briefly, mice were habituated to the test arena (i.e., the NOR box) for 30 minutes prior to the test day. Pairs of mice, unfamiliar to each other, received either the same treatment (e.g., vehicle and vehicle; N=10 pairs) or different treatments (e.g., vehicle; N=10 and phencyclidine (PCP) 10 mg/kg; N=10). After washout, they were placed in the test arena together for 10 minutes. A heavy object made of Plexiglas or metal was placed in the center of the test arena to quantify the time and nature of interaction of the test animals with an unfamiliar object or an unfamiliar animal. After the 10 min test phase, the object and the arena were cleaned with 70% ethanol to remove any olfactory trails. Behavior was recorded on video for subsequent blind scoring.
The following four behaviors were scored for each animal: • a) Sniffing: A normal mouse engages in sniffing the con-specific mouse's body, including the anogenital area • b) Following: A normal mouse pursues a con-specific mouse around the arena • c) Avoiding: A normal mouse avoids the con-specific mouse and move away from a pursuing mouse if approached • d) Object Exploration: A normal mouse explores the object that is placed in the center of the test arena.
Acute restraint stress (ARS) protocol: Mice were assigned to one of two groups: either the control group (non-stress) or the stress group. Generally, mice of the stress group were restrained in well-ventilated 50 mL tubes. After the restraint period of 1 or 2 hours, the mice were transferred into a clean animal housing cage for 1-hour interval and thereafter went through the first social interaction test (different mice are used to test different groups).
Treatment resistant animal model: To establish this model, Acute restraint stress (ARS) was added to scPCP treatment. Two groups (vehicle+ARS; scPCP+ARS) and their controls (vehicle+saline; scPCP+saline) were used. ARS was applied for 1 or 2 hours and tested on SI 1 hour post-ARS.
The behavioral assay, ARS protocol, and scPCP-treatment as described in Example 2 were used. To test the effect of atypical APD and pimavanserin, alone or as con-administration, in scPCP-treated mice (N=10 pairs of mice per group) given 2 h ARS, risperidone (“Risp”) was administered as 0.2 mg/kg or 0.4 mg/kg ip; olanzapine (“Olan”) as 1.0 mg/kg ip; aripiprazole (“Aripi”) as 1.0 mg/kg ip; and pimavanserin (“Pim”) as 3 mg/kg ip to scPCP+ARS(2h) treated male C57BL/6J mice 45 minutes prior to the commencement of the social interaction task in the 10 min social interaction test. Plasma levels of risperidone were measured using a Triple Quad 6500+ mass spectrometer.

In the case of CC(C)COc1ccc(CNC(=O)N(Cc2ccc(F)cc2)C2CCN(C)CC2)cc1 [Pimavanserin, N-(4-Fluorophenylmethyl)-N-(1-methylpiperidin-4-yl)-N′-(4-(2-methylpropyloxy)phenylmethyl)carbamide], the “Patients who completed the study” value ([1]; 6-week study) is reported as “Approximately 88%”, the QT prolongation ([1]; 6-week study) is reported as “Minimal QT prolongation” and the “Vital signs, weight, metabolic syndrome, and extrapyramidal symptoms compared to adjunctive placebo” value ([1]; 6-week study) is reported as “did not result in clinically significant differences; also recorded: No effect was seen”. The “Any Related Serious Treatment-Emergent Adverse Event, Events n” value ([1]; Safety Analysis Set, N = 198) was 2, the “Any Related Serious Treatment-Emergent Adverse Event, Subjects (%)” value ([1]; Safety Analysis Set, N = 198) was 0.5% and the “Any Related Serious Treatment-Emergent Adverse Event, Subjects n” value ([1]; Safety Analysis Set, N = 198) was 1. For the same molecule, the “Any Related Treatment-Emergent Adverse Event, Events n” value ([1]; Safety Analysis Set, N = 198) was 46, the “Any Related Treatment-Emergent Adverse Event, Subjects (%)” value ([1]; Safety Analysis Set, N = 198) was 16.7% and the “Any Related Treatment-Emergent Adverse Event, Subjects n” value ([1]; Safety Analysis Set, N = 198) was 33. The “Any Serious Treatment-Emergent Adverse Event, Events n” value ([1]; Safety Analysis Set, N = 198) was 3, the “Any Serious Treatment-Emergent Adverse Event, Subjects (%)” value ([1]; Safety Analysis Set, N = 198) was 1.0% and the “Any Serious Treatment-Emergent Adverse Event, Subjects n” value ([1]; Safety Analysis Set, N = 198) was 2. For the same molecule, the “Any Treatment-Emergent Adverse Event Leading to Discontinuation or Study Termination, Events n” value ([1]; Safety Analysis Set, N = 198) was 7, the “Any Treatment-Emergent Adverse Event Leading to Discontinuation or Study Termination, Subjects (%)” value ([1]; Safety Analysis Set, N = 198) was 2.5% and the “Any Treatment-Emergent Adverse Event Leading to Discontinuation or Study Termination, Subjects n” value ([1]; Safety Analysis Set, N = 198) was 5. For the same molecule, the “Any Treatment-Emergent Adverse Event, Events n” value ([1]; Safety Analysis Set, N = 198) was 142, the “Any Treatment-Emergent Adverse Event, Subjects (%)” value ([1]; Safety Analysis Set, N = 198) was 40.4% and the “Any Treatment-Emergent Adverse Event, Subjects n” value ([1]; Safety Analysis Set, N = 198) was 80. For the same molecule, the “Any Serious Treatment-Emergent Adverse Event, Subjects (%)” value ([1]; Safety Analysis Set, N = 198, listed as pimavanserin) was 1%, the “Adverse events reported in at least 5% of patients” value ([1]; pimavanserin group, 6-week study) was “headache, somnolence, and insomnia” and the “NSA-16 total score vs placebo, effect size” value ([2]; 34 mg dose) was 0.34. For the same molecule, the “NSA-16 total score, change from Baseline to Week 26” value ([2]; all pimavanserin doses (10-34 mg daily), added to background antipsychotic) was −10.4, the “NSA-16 total score vs placebo, effect size” value ([2]; all pimavanserin doses) was 0.21 and the “Personal and Social Performance Scale, change from Baseline to Week 26” value ([2]; key secondary endpoint, placebo 8.1) was 8.1. For the same molecule, the “NSA-16 total score, change from Baseline to Week 26” value ([2]; patients who received the 34 mg fixed dose after week 8 (n=107)) was −11.6 and the “Able to restore sniffing or decrease avoidance (SI deficit), drug alone” value [3] was “Neither; also recorded: ineffective”.
